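GI50 = concentration required for 50% inhibition of growth. TGI denotes the concentration required for complete inhibition of growth.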
Columns and labels:
Assay in all cases: growth of human tumour cells (NCI), 384-well format
[1] = test system: K-562 leukemia
[2] = test system: PC-3 prostate
[3] = test system: M14 melanoma
[4] = test system: CCRF-CEM leukemia
[5] = test system: SK-MEL-2 melanoma
[6] = test system: SK-MEL-5 melanoma
[7] = test system: MDA-MB-468 breast
[8] = test system: MOLT-4 leukemia
[9] = test system: HL-60(TB) leukemia
[10] = test system: NCI/ADR-RES ovarian
[11] = test system: BT-549 breast
[12] = test system: LOX IMVI melanoma
[13] = test system: NCI-H226 lung
[14] = test system: HOP-92 NSCLC
[15] = test system: SF-295 CNS
[16] = test system: HCT-116 colon
[17] = test system: SR leukemia
[18] = test system: IGROV1 ovarian
[19] = test system: T-47D breast
[20] = test system: OVCAR-8 ovarian
[21] = test system: MALME-3M melanoma
[22] = test system: HOP-62 NSCLC
[23] = test system: UACC-62 melanoma
[24] = test system: 786-0 renal
[25] = test system: A498 renal
[26] = test system: SK-MEL-28 melanoma
[27] = test system: DU-145 prostate
[28] = test system: UACC-257 melanoma
[29] = test system: UO-31 renal
[30] = test system: OVCAR-5 ovarian
[31] = test system: HCT-15 colon
[32] = test system: RXF 393 renal
[33] = test system: MDA-MB-435 melanoma
[34] = test system: NCI-H23 lung
[35] = test system: NCI-H460 NSCLC
[36] = test system: COLO 205 colon
[37] = test system: MCF7 breast
[38] = test system: SK-OV-3 ovarian
[39] = test system: KM12 colon
[40] = test system: NCI-H322M lung
[41] = test system: RPMI-8226 leukemia
[42] = test system: U251 glioblastoma
[43] = test system: SW-620 colon
[44] = test system: MDA-MB-231 breast
[45] = test system: SN12C renal
[46] = test system: SF-539 CNS
[47] = test system: NCI-H522 lung
[48] = test system: SF-268 CNS
[49] = test system: CAKI-1 renal
[50] = test system: A549 NSCLC
[51] = test system: SNB-19 CNS
[52] = test system: HT29 colon
[53] = test system: TK-10 renal
[54] = test system: ACHN renal
[55] = test system: HCC-2998 colon
[56] = test system: OVCAR-3 ovarian
[57] = test system: OVCAR-4 ovarian

## COCCNCc1ccc(-c2cc3nccc(Oc4ccc(NC(=S)NC(=O)Cc5ccc(F)cc5)cc4F)c3s2)nc1
[1]
  GI50: 0.177 µM
  TGI: 0.343 µM
[2]
  GI50: 1.81 µM
  TGI: 3.21 µM
[3]
  GI50: 1.58 µM
  TGI: 2.94 µM
[4]
  GI50: 0.868 µM
  TGI: 2.07 µM
[5]
  GI50: 1.96 µM
  TGI: 3.38 µM
[6]
  GI50: 1.26 µM
  TGI: 2.52 µM
[7]
  GI50: 1.85 µM
  TGI: 3.25 µM
[8]
  GI50: 0.582 µM
  TGI: 1.78 µM
[9]
  GI50: 0.621 µM
  TGI: 1.75 µM
[10]
  GI50: 1.58 µM
  TGI: 2.93 µM
[11]
  GI50: 1.6 µM
  TGI: 2.95 µM
[12]
  GI50: 2.02 µM
  TGI: 3.46 µM
[13]
  GI50: 1.95 µM
  TGI: 3.62 µM
[14]
  GI50: 1.26 µM
  TGI: 2.52 µM
[15]
  GI50: 0.875 µM
  TGI: 2.11 µM
[16]
  GI50: 1.28 µM
  TGI: 2.56 µM
[17]
  GI50: 0.187 µM
  TGI: 0.33 µM
[18]
  GI50: 1.64 µM
  TGI: 3.54 µM
[19]
  GI50: 1.48 µM
  TGI: 2.81 µM
[20]
  GI50: 1.42 µM
  TGI: 2.74 µM
[21]
  GI50: 1.54 µM
  TGI: 2.89 µM
[22]
  GI50: 1.93 µM
  TGI: 3.35 µM
[23]
  GI50: 1.52 µM
  TGI: 2.86 µM
[24]
  GI50: 1.48 µM
  TGI: 2.82 µM
[25]
  GI50: 1.56 µM
  TGI: 2.9 µM
[26]
  GI50: 1.5 µM
  TGI: 2.83 µM
[27]
  GI50: 1.86 µM
  TGI: 3.29 µM
[28]
  GI50: 1.09 µM
  TGI: 2.29 µM
[29]
  GI50: 1.6 µM
  TGI: 2.95 µM
[30]
  GI50: 1.94 µM
  TGI: 3.38 µM
[31]
  GI50: 1.71 µM
  TGI: 3.11 µM
[32]
  GI50: 1.59 µM
  TGI: 2.94 µM
[33]
  GI50: 1.86 µM
  TGI: 3.27 µM
[34]
  GI50: 0.486 µM
  TGI: 2.2 µM
[35]
  GI50: 1.42 µM
  TGI: 2.75 µM
[36]
  GI50: 1.61 µM
  TGI: 2.98 µM
[37]
  GI50: 1.48 µM
  TGI: 2.81 µM
[38]
  GI50: 1.55 µM
  TGI: 2.89 µM
[39]
  GI50: 0.385 µM
  TGI: 1.44 µM
[40]
  GI50: 1.7 µM
  TGI: 3.09 µM
[41]
  GI50: 0.614 µM
  TGI: 1.82 µM
[42]
  GI50: 1.3 µM
  TGI: 2.58 µM
[43]
  GI50: 1.55 µM
  TGI: 2.92 µM
[44]
  GI50: 1.44 µM
  TGI: 2.76 µM
[45]
  GI50: 1.14 µM
  TGI: 2.35 µM
[46]
  GI50: 0.969 µM
  TGI: 2.15 µM
[47]
  GI50: 1.67 µM
  TGI: 3.03 µM
[48]
  GI50: 1.57 µM
  TGI: 2.92 µM
[49]
  GI50: 1.52 µM
  TGI: 2.86 µM
[50]
  GI50: 1.68 µM
  TGI: 3.07 µM
[51]
  GI50: 1.78 µM
  TGI: 3.19 µM
[52]
  GI50: 1.16 µM
  TGI: 2.41 µM
[53]
  GI50: 1.78 µM
  TGI: 3.17 µM
[54]
  GI50: 1.72 µM
  TGI: 3.11 µM
[55]
  GI50: 1.85 µM
  TGI: 3.26 µM
[56]
  GI50: 1.89 µM
  TGI: 3.31 µM
[57]
  GI50: 1.09 µM
  TGI: 2.3 µM
